Patent publication US9321750B2, “ROR modulators and their uses” (INNOV17 LLC, priority 2012, dated 2016)
pEC50, pIC50: −log10 of the molar value. Where two headings read alike, the source gives them in different places.

How the values were obtained:
RORγ LBD [1] = target: T1, RORγ LBD (Homo sapiens (Human), UniProt P51449); experiment: RORγ LBD binding (Human RORγ Assay System, INDIGO Biosciences); details: 0.5% DMSO
Procedure: Compound binding to the human RORγ LBD was assessed using the Human RORγ Assay System (INDIGO Biosciences Inc.) as per manufacturer's instructions.

RORγ LBD [2] = target: T1, RORγ LBD; experiment: TR-FRET co-repressor NCoR1-D2 interaction with RORγ LBD; format: biochemical
Text: (§1) The Time-Resolved Fluorescence Resonance Energy Transfer (TR-FRET) assay kit (Life Technologies) was used to measure compound efficacy to disrupt or enhance ligand-mediated interaction of the co-activator and co-repressor peptides with the purified GST-tagged (i) RORγ LBD or (ii) […]. The RORγ LBD and RORα LBD each have a basal level of interaction with the co-activator D22 or co-repressor NCoR1-D2 in the absence of ligand, thus it is possible to identify compounds that inhibit or induce RORγ and/or RORα co-activator/co-repressor interactions, thus determining RORα, RORγ, or RORα/RORγ compound selectivity. The assay was performed as per manufacturer's instructions and TR-FRET was assessed 2 and 20 hours post-assay initiation. Compounds were identified to (i) have no impact on either co-activator displacement or […] from the assessed LBD (ii) promote co-activator displacement from the assessed LBD (iii) promote co-repressor recruitment to the assessed LBD or (iv) concurrently promote co-activator displacement from the assessed LBD and co-repressor recruitment to the assessed LBD.

FOXP3 = experiment: Real-time qRT-PCR in TH17 cells: FOXP3 gene expression; format: cell-based, human; parameters: key: A: No change in gene expression observed relative to DMSO treated Th17 cells; B: Decreased gene expression observed relative to DMSO treated Th17 cells; C: Increased gene expression observed relative to DMSO treated Th17 cells
Procedure: (§2) Peripheral blood mononuclear cells (PBMCs) were sourced from freshly prepared leukocyte enriched plasma (buffy coat) from healthy volunteers from which PBMCs were isolated by density gradient centrifugation using Ficoll-Paque™ PLUS (GE Healthcare). Naïve CD4+ T cells were isolated using the Naïve CD4+ T cell Isolation Kit II (Miltenyi Biotec) as per manufacturer's instructions. CD4+ T cells were plated at 5×10^4 cells/well in 96 well plates pre-coated with immobilized human (h)-αCD3 antibody (eBioscience) then differentiated to TH17 cells using h-αCD28, h-αIFNγ, h-αIL4, h-IL6, h-IL23, h-IL1β, h-TGFβ1 (eBioscience) and maintained in a cell culture incubator at 37° C. with 5% CO2 in TexMACS Medium (Miltenyi Biotec) supplemented with 1% Penicillin/Streptomycin (Lonza) over 5 days.
(§3) RNA was isolated from TH17 cells and cDNA was synthesized using the Verso cDNA kit (Thermo Scientific) as per manufacturer's instructions. IL-17A, IL-17F, IL-21, IL-22, G-CSF, IL-23R and FOXP3 gene expression were determined for compound treated and untreated TH17 cell samples using Solaris qPCR Gene expression assays (Thermo Scientific) with an iCycler iQ Real-Time PCR Detection System (Bio-Rad). Individual gene expression was normalized to a panel of six reference genes (ACTB, TBP, HPRT1, PGK1, TFRC and PPIA) (Thermo Scientific) and analyzed by REST 2009 (Qiagen) in accordance to MIQE guidelines (Bustin et al. (2009) Clin. Chem, 55:611-622). The effects of compounds on TH17 cytokine mRNA levels are presented as fold change in gene expression of compound treated TH17 cells relative to DMSO treated cells in the table below.

TH17 cells = experiment: TH17 cellular proliferation (Prestoblue); format: cell-based; details: Homo sapiens, 120 h; 3 μM compound, after 5 day TH17 differentiation, relative to DMSO treated TH17 cells; read-out: % change in TH17 cell number
Procedure: as §2
Cellular proliferation was assessed in the presence or absence of 3 μM compound using Prestoblue® Cell Viability Reagent (Life Technologies) as per manufacturer's instructions using absorbance as the output measured by a microplate reader (Perkin Elmer) after 30 minutes of incubation of cells and reagent. A standard curve developed by plotting varying cell numbers versus absorbance was used to assess differences in cellular proliferation between compound treated or untreated cells after the 5 day TH17 differentiation period.

RORα LBD = RORα LBD (Homo sapiens (Human), UniProt P35398); experiment: TR-FRET co-repressor NCoR1-D2 interaction with RORα LBD; format: biochemical
Text: as §1

IL-22 = experiment: TH17 cytokine inhibition as measured by ELISA: IL-22; format: cell-based; details: 120 h; human TH17 cells, 5 days differentiation, ELISA of supernatant
Procedure: as §2
(§4) Human CD4+ T cells were differentiated to TH17 cells as described in the presence or absence of various concentrations of compounds in a final concentration of 0.1% DMSO in TexMACS medium. Supernatants were collected and stored at −20° C. until they were to be assayed for IL-17A, IL-17F, IL-17AF, IL-21 and/or IL-22 levels as determined by Ready-Set-Go ELISA kits (eBioscience) as per manufacturer's instructions. Endpoint absorbance was read at 450 nm and 570 nm according to manufacturer's instructions (eBioscience) using a microplate reader (Perkin Elmer). The percentage of cytokine inhibition was calculated with reference to DMSO treated cells and the IC50s were determined by GraphPad Prism software and presented in the table below.

IL-17F [3] = experiment: TH17 cytokine inhibition as measured by ELISA: IL-17F; format: cell-based; details: 120 h; human TH17 cells, 5 days differentiation, ELISA of supernatant
Procedure: as §2, §4

IL-17F [4] = experiment: Real-time qRT-PCR in TH17 cells: IL-17F gene expression; format: cell-based, human; parameters: key: A: No change in gene expression observed relative to DMSO treated Th17 cells; B: Decreased gene expression observed relative to DMSO treated Th17 cells; C: Increased gene expression observed relative to DMSO treated Th17 cells
Procedure: as §2, §3

IL-21 = experiment: Real-time qRT-PCR in TH17 cells: IL-21 gene expression; format: cell-based, human; parameters: key: A: No change in gene expression observed relative to DMSO treated Th17 cells; B: Decreased gene expression observed relative to DMSO treated Th17 cells; C: Increased gene expression observed relative to DMSO treated Th17 cells
Procedure: as §2, §3

IL-17A [5] = experiment: Real-time qRT-PCR in TH17 cells: IL-17A gene expression; format: cell-based, human; parameters: key: A: No change in gene expression observed relative to DMSO treated Th17 cells; B: Decreased gene expression observed relative to DMSO treated Th17 cells; C: Increased gene expression observed relative to DMSO treated Th17 cells
Procedure: as §2, §3

IL-17A [6] = experiment: TH17 cytokine inhibition as measured by ELISA: IL-17A; format: cell-based; details: 120 h; human TH17 cells, 5 days differentiation, ELISA of supernatant
Procedure: as §2, §4

RORγ LBD [7] = target: T1, RORγ LBD; experiment: TR-FRET co-activator D22 interaction with RORγ LBD; format: biochemical
Text: as §1

[8] = 2 hr, read-out: RORγ EC50 NCoR1-D2 co-repressor recruitment 2 hr
[9] = 20 hr, read-out: RORγ EC50 NCoR1-D2 co-repressor recruitment 20 hr
[10] = 2 hr, read-out: RORα EC50 NCoR1-D2 co-repressor recruitment 2 hr
[11] = 20 hr, read-out: RORα EC50 NCoR1-D2 co-repressor recruitment 20 hr
[12] = 2 hr, read-out: RORγ EC50 D22 co-activator displacement 2 hr
[13] = 20 hr, read-out: RORγ EC50 D22 co-activator displacement 20 hr

T1 sequence (P51449 269-508): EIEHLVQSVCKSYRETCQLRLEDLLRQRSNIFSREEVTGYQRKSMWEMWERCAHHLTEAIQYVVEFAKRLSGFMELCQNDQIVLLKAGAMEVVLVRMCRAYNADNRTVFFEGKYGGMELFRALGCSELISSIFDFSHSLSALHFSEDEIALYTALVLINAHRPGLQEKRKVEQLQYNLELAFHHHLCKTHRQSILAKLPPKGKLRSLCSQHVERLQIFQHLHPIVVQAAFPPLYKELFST
Chain of RORα LBD (P35398 272-510): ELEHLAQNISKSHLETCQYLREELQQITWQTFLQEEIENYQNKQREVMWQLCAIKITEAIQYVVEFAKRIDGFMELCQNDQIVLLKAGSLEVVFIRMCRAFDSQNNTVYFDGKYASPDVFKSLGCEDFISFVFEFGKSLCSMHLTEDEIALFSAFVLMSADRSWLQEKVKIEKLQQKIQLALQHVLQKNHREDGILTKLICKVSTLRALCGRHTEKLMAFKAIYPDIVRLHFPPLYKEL

SMILES	pIC50 (RORγ LBD [1])	pEC50 (RORγ LBD [2]; [8])	pEC50 (RORγ LBD [2]; [9])	Fold change in mRNA level of compound treated TH17 cells relative to DMSO treated cells FOXP3 (FOXP3)	inhibition at 3 µM (TH17 cells) [%]	pEC50 (RORα LBD; [10])	pEC50 (RORα LBD; [11])	pIC50 (IL-22)	pIC50 (IL-17F [3])	Fold change in mRNA level of compound treated TH17 cells relative to DMSO treated cells IL-17F (IL-17F [4])	Fold change in mRNA level of compound treated TH17 cells relative to DMSO treated cells IL-21 (IL-21)	Fold change in mRNA level of compound treated TH17 cells relative to DMSO treated cells IL-17A (IL-17A [5])	pIC50 (IL-17A [6])	pEC50 (RORγ LBD [7]; [12])	pEC50 (RORγ LBD [7]; [13])
CC(=O)Nc1ccc2c(c1)CCCN2Cc1ccc(C(O)(C(F)(F)F)C(F)(F)F)cc1 [Example 2, N-(1-(4-(1,1,1,3,3,3-hexafluoro-2-hydroxypropan-2-yl)benzyl)-1,2,3,4-tetrahydroquinolin-6-yl)acetamide]	> 5.00	< 4.52	< 4.52	A	≤ 50	< 4.52	< 4.52	> 5.00	> 5.00	A	A	A	> 5.00	> 4.52	> 4.52
CC(=O)Nc1ccc2c(c1)CCN2Cc1ccc(C(O)(C(F)(F)F)C(F)(F)F)cc1 [Example 4, N-(1-(4-(1,1,1,3,3,3-hexafluoro-2-hydroxypropan-2-yl)benzyl)indolin-5-yl)acetamide]	> 5.00	> 4.52	> 4.52	C	> 50	< 4.52	< 4.52	> 5.00	> 5.00	B	B	B	> 5.00	> 4.52	> 4.52
CS(=O)(=O)Nc1ccc2c(c1)CCCN2Cc1ccc(C(O)(C(F)(F)F)C(F)(F)F)cc1 [Example 5, N-(1-(4-(1,1,1,3,3,3-hexafluoro-2-hydroxypropan-2-yl)benzyl)-1,2,3,4-tetrahydroquinolin-6-yl)methanesulfonamide]	> 5.00	> 4.52	> 4.52	C	≤ 50	> 4.52	> 4.52	> 5.00	> 5.00	B	B	B	> 5.00	< 4.52	> 4.52
